This is an account of results in patent publication US20100004330A1, “ANTI-OXIDATIVE CONTENT MATERIAL USED IN DRINK AND FOOD MANUFACTURING METHOD” (priority 2008, published 2010).

The structures appear in SMILES notation.

Experiment [1] deals with tissue factor. Particulars: added into micro-emulsion; 0.5, 2 and 10 μmol/L; P<0.01; cited from earlier work.
Experiment [2] in a line: antioxidant activity testing (DPPH scavenging activity). Format: biochemical. The following applies: corresponds to ppm VitE. From the text:
According to the present invention, the products of the Beta-carotene, lutein, lycopene, and of mixture of these three (in 0.5:4:4 optimal weight ratio) from the Allied Biochemical Industrial Co., Ltd were sent to “Food Industrial Research And Development Institute” (331 Shih-Pin Road, Hsinchu, 300 Taiwan) for antioxidant activity testing (DPPH scavenging activity).
For orientation: Loss of DPPH colour is used to gauge radical scavenging.

For experiment [3], the system named is thiobarbituric acid-reactive substances (TBARS), lipid peroxidation. The following applies: single carotenoid; Control (no antioxidants) 100 ± 9; cited from earlier work.
For experiment [4], the system named is myocardial infarction. Particulars: contrast of the 10th and 90th percentiles of carotenoid level in adipose tissue; cited from earlier work.
For experiment [5], the system named is macular degeneration. Particulars: person ingesting 6 mg per day; cited from earlier work.
For experiment [6], the system named is cardiovascular disease. Particulars: middle-aged or elderly; cited from earlier work.

Turning to `CC(C)=CCC/C(C)=C/C=C/C(C)=C/C=C/C(C)=C/C=C/C=C(C)/C=C/C=C(C)/C=C/C=C(\C)CCC=C(C)C` [Lycopene], the tissue factor activity result in experiment [1] is “suppress tissue factor activity”. Further, the Scavenging rate/g entry in experiment [2] is on record as “correspond to 2.35 × 10^4 ppm VitE”. In addition, the “TBARS (%) measured” value in experiment [3] was 25 ± 10%. Moreover, in experiment [4], the “odds ratio, myocardial infarction” value was 0.52.
In the case of `CC1=C[C@H](O)CC(C)(C)[C@H]1/C=C/C(C)=C/C=C/C(C)=C/C=C/C=C(C)/C=C/C=C(C)/C=C/C1=C(C)C[C@@H](O)CC1(C)C` [Lutein], the tissue factor activity result in experiment [1] was “suppress tissue factor activity”. In experiment [5], the “lower risk for macular degeneration” value is on record as 43%. The Scavenging rate/g entry in experiment [2] is “correspond to 7.69 × 10^2 ppm VitE”. In experiment [3], the “TBARS (%) measured” value is reported as 77 ± 9%.
On to `CC1=C(/C=C/C(C)=C/C=C/C(C)=C/C=C/C=C(C)/C=C/C=C(C)/C=C/C2=C(C)CCCC2(C)C)C(C)(C)CCC1` [β-carotene], for which the tissue factor activity entry in experiment [1] is reported as “suppress tissue factor activity”. In experiment [2], the Scavenging rate/g result was “correspond to 7.08 × 10^3 ppm VitE”. For the same molecule, the “reduction of the risk of cardiovascular disease” value in experiment [6] is listed as 45%. Further, the “TBARS (%) measured” value in experiment [3] was 73 ± 9%.
